Source: patent publication US4400510A, “A-32256 Phenazine antibiotic” (Eli Lilly and Company, priority 1981, dated 1983)
Structures can show the parent of a compound that is named as a salt. Where two headings read alike, the source gives them in different places.

How the values were obtained:
Actinomyces israellii = assay: agar-dilution MIC vs. anaerobic bacteria; type: cell-based; conditions: strain W855; Table 6; disodium salt, monohydrate
Description: (§1) The agar-dilution procedure described by the International Collaborative Study (ICS) group was used to determine MIC values.
The MIC was determined by the agar-dilution method.

Clostridium perfringens = assay: microbe, parasite or virus in culture; type: cell-based; conditions: strain 81; Table 6; disodium salt, monohydrate
Eubacterium aerofaciens = assay: agar-dilution MIC vs. anaerobic bacteria; type: cell-based; conditions: strain 1235; Table 6; disodium salt, monohydrate
[1] = system: Peptococcus asaccharolyticus; assay: agar-dilution MIC vs. anaerobic bacteria; type: cell-based; conditions: strain 1302; Table 6; disodium salt, monohydrate
Propionibacterium acnes = assay: agar-dilution MIC vs. anaerobic bacteria; type: cell-based; conditions: strain 79; Table 6; disodium salt, monohydrate
Bacteroides fragilis [2] = assay: agar-dilution MIC vs. anaerobic bacteria; type: cell-based; conditions: Table 6, disodium salt, monohydrate
[3] = system: Bacteroides melanogenicus; assay: agar-dilution MIC vs. anaerobic bacteria; type: cell-based; conditions: Table 6, disodium salt, monohydrate
Bacteroides vulgatis = assay: agar-dilution MIC vs. anaerobic bacteria; type: cell-based; conditions: strain 1211; Table 6; disodium salt, monohydrate
Fusobacterium symbiosum = assay: agar-dilution MIC vs. anaerobic bacteria; type: cell-based; conditions: strain 1470; Table 6; disodium salt, monohydrate
[4] = system: Fusobacterium necrophorum; assay: agar-dilution MIC vs. anaerobic bacteria; type: cell-based; conditions: strain 6054A; Table 6; disodium salt, monohydrate
B. corrodens = assay: agar-dilution MIC vs. Bacteroides species; type: cell-based; conditions: B. corrodens 1874; 24 hours; Table 8; disodium salt, monohydrate
Description: as §1
(§2) The MIC values were determined by the agar-dilution method, the endpoints being read 24 hours after incubation, and are recorded in Table 8, which follows.

B. thetaiotaomicron = assay: agar-dilution MIC vs. Bacteroides species; type: cell-based; conditions: 24 hours, Table 8, disodium salt, monohydrate
Description: as §1, §2

B. vulgatis = assay: agar-dilution MIC vs. Bacteroides species; type: cell-based; conditions: B. vulgatis 1563; 24 hours; Table 8; disodium salt, monohydrate
Description: as §1, §2

Bacteroides fragilis [5] = assay: agar-dilution MIC vs. Bacteroides species; type: cell-based; conditions: 24 hours, Table 8, disodium salt, monohydrate
Description: as §1, §2

[6] = system: Peptococcus asaccharolyticus; assay: agar-dilution MIC vs. Peptococcus and Peptostreptococcus species; type: cell-based; conditions: Table 9, disodium salt, monohydrate
Description: as §1
(§3) The MIC values were determined by the agar-dilution method, and are recorded in Table 9, which follows.

Peptococcus constellatus = assay: as above; type: cell-based; conditions: Pc. constellatus 1468; Table 9; disodium salt, monohydrate
Description: as §1, §3

Peptococcus magnus = assay: as above; type: cell-based; conditions: Table 9, disodium salt, monohydrate
Description: as §1, §3

Peptococcus prevoti = assay: as above; type: cell-based; conditions: Table 9, disodium salt, monohydrate
Description: as §1, §3

[7] = system: Peptostreptococcus anaerobius; assay: as above; type: cell-based; conditions: Table 9, disodium salt, monohydrate
Description: as §1, §3

[8] = system: Peptostreptococcus intermedius; assay: as above; type: cell-based; conditions: Table 9, disodium salt, monohydrate
Description: as §1, §3

Trichomonas vaginalis = assay: broth dilution assay, antitrichomonal activity; type: cell-based; conditions: Trichomonas vaginalis; broth dilution assay; read-out: Minimal Inhibitory Concentration
hygroscopicity = type: physicochemical; conditions: monohydrate, brown powder
Staphylococcus aureus = assay: disc-plate screening procedure, zone of inhibition
Streptococcus pyogenes = assay: disc-plate screening procedure, zone of inhibition; conditions: read-out: Zone Diameter
[9] = system: Streptococcus sp. (Group D); assay: disc-plate screening procedure, zone of inhibition; conditions: read-out: Zone Diameter
Streptococcus pneumoniae = assay: disc-plate screening procedure, zone of inhibition; conditions: read-out: Zone Diameter

Cc1cccc(O)c1C(=O)OC(C)c1cccc2nc3c(C(=O)O)cccc3nc12 (stereo not shown) [A-32256 disodium salt, 6-[1-[(2-hydroxy-6-methylbenzoyl)oxy]ethyl]-1-phenazinecarboxylic acid, disodium salt, monohydrate]
MIC (Actinomyces israellii): ≤ 0.5 µg/mL
MIC (Clostridium perfringens): 1.0 µg/mL
MIC (Eubacterium aerofaciens): ≤ 0.5 µg/mL
MIC [1]: ≤ 0.5 µg/mL
MIC (Propionibacterium acnes): ≤ 0.5 µg/mL
MIC (Bacteroides fragilis [2]; strain 111): ≤ 0.5 µg/mL
MIC (Bacteroides fragilis [2]; strain 1877): ≤ 0.5 µg/mL
MIC (Bacteroides fragilis [2]; strain 1936B): ≤ 0.5 µg/mL
MIC ([3]; strain 1856/28): 32 µg/mL
MIC ([3]; strain 2736): ≤ 0.5 µg/mL
MIC (Bacteroides vulgatis): ≤ 0.5 µg/mL
MIC (Fusobacterium symbiosum): ≤ 0.5 µg/mL
MIC [4]: 1.0 µg/mL
MIC (B. corrodens): ≤ 0.015 µg/mL
MIC (B. thetaiotaomicron; B. thetaiotaomicron 1438): 0.03 µg/mL
MIC (B. thetaiotaomicron; B. thetaiotaomicron 1900A): 0.03 µg/mL
MIC (B. vulgatis): 0.03 µg/mL
MIC (Bacteroides fragilis [5]; B. fragilis 2): ≤ 0.015 µg/mL
MIC (Bacteroides fragilis [5]; B. fragilis 9): ≤ 0.015 µg/mL
MIC (Bacteroides fragilis [5]; B. fragilis 62): ≤ 0.015 µg/mL
MIC (Bacteroides fragilis [5]; B. fragilis 103): ≤ 0.015 µg/mL
MIC (Bacteroides fragilis [5]; B. fragilis 104): ≤ 0.015 µg/mL
MIC (Bacteroides fragilis [5]; B. fragilis 106): ≤ 0.015 µg/mL
MIC (Bacteroides fragilis [5]; B. fragilis 107): 0.03 µg/mL
MIC (Bacteroides fragilis [5]; B. fragilis 108): ≤ 0.015 µg/mL
MIC (Bacteroides fragilis [5]; B. fragilis 110): ≤ 0.015 µg/mL
MIC (Bacteroides fragilis [5]; B. fragilis 111): 0.03 µg/mL
MIC (Bacteroides fragilis [5]; B. fragilis 112): ≤ 0.015 µg/mL
MIC (Bacteroides fragilis [5]; B. fragilis 113): ≤ 0.015 µg/mL
MIC (Bacteroides fragilis [5]; B. fragilis 1470): ≤ 0.015 µg/mL
MIC (Bacteroides fragilis [5]; B. fragilis 1877): ≤ 0.015 µg/mL
MIC (Bacteroides fragilis [5]; V. fragilis 1451 (so in the source)): 0.03 µg/mL
MIC ([6]; Pc. asaccharolyticus 1302): ≤ 0.06 µg/mL
MIC ([6]; Pc. asaccharolyticus 1344): ≤ 0.06 µg/mL
MIC (Peptococcus constellatus): 0.5 µg/mL
MIC (Peptococcus magnus; Pc. magnus 1401): 0.125 µg/mL
MIC (Peptococcus magnus; Pc. magnus 1421): 0.125 µg/mL
MIC (Peptococcus magnus; Pc. magnus 1477): 0.125 µg/mL
MIC (Peptococcus prevoti; Pc. prevoti 1281): 0.125 µg/mL
MIC (Peptococcus prevoti; Pc. prevoti 1293): 0.125 µg/mL
MIC (Peptococcus prevoti; Pc. prevoti 1407): 0.5 µg/mL
MIC ([7]; Ps. anaerobius 8): 0.25 µg/mL
MIC ([7]; Ps. anaerobius 52): 0.5 µg/mL
MIC ([7]; Ps. anaerobius 59): ≤ 0.06 µg/mL
MIC ([7]; Ps. anaerobius 1418): ≤ 0.06 µg/mL
MIC ([7]; Ps. anaerobius 1428): 0.25 µg/mL
MIC ([7]; Ps. anaerobius 1451): ≤ 0.06 µg/mL
MIC ([7]; Ps. anaerobius 1477): 0.125 µg/mL
MIC ([8]; Ps. intermedius 1264): ≤ 0.06 µg/mL
MIC ([8]; Ps. intermedius 1624): ≤ 0.06 µg/mL
MIC (Trichomonas vaginalis): < 0.975 µg/mL
hygroscopicity (hygroscopicity): hygroscopic
zone of inhibition at 10 µg/disc (Staphylococcus aureus; read-out: Zone Diameter, S. aureus 3055, benzylpenicillin-susceptible, 10 mcg/disc): 17.8 mm
zone of inhibition at 100 µg/disc (Staphylococcus aureus; read-out: Zone Diameter, S. aureus 3055, benzylpenicillin-susceptible, 100 mcg/disc): 25.2 mm
zone of inhibition at 10 µg/disc (Staphylococcus aureus; read-out: Zone Diameter, S. aureus 3074, benzylpenicillin-resistant, 10 mcg/disc): 16.2 mm
zone of inhibition at 100 µg/disc (Staphylococcus aureus; read-out: Zone Diameter, S. aureus 3074, benzylpenicillin-resistant, 100 mcg/disc): 23.3 mm
zone of inhibition at 10 µg/disc (Staphylococcus aureus; read-out: Zone Diameter, S. aureus 3130, methicillin-resistant, 10 mcg/disc): 19.8 mm
zone of inhibition at 100 µg/disc (Staphylococcus aureus; read-out: Zone Diameter, S. aureus 3130, methicillin-resistant, 100 mcg/disc): 26.8 mm
zone of inhibition at 10 µg/disc (Streptococcus pyogenes): 17 mm
zone of inhibition at 100 µg/disc (Streptococcus pyogenes): 21 mm
zone of inhibition at 10 µg/disc [9]: 15.6 mm
zone of inhibition at 100 µg/disc [9]: 20.4 mm
zone of inhibition at 10 µg/disc (Streptococcus pneumoniae): 25 mm
zone of inhibition at 100 µg/disc (Streptococcus pneumoniae): 31 mm
